Data reported in ChEMBL document CHEMBL1201862, “PubChem BioAssay data set” (2004).
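Growth conditions: 96-well plates. Treatment: test compound, 48 hours, 5 concentrations. Analysis: linear interpolation between bracketing concentrations; unreached endpoints set to highest concentration. At the GI50, growth is halved.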 Activity calls are given as the source filed them. Rule as the data show it: active = GI50 up to about 1.1 µM and inactive = higher.

Experiments:
Test in all cases: NCI-60 cell line screen, 48 h
[1] = system: CCRF-CEM
[2] = system: NCI-H460
[3] = system: MOLT-4
[4] = system: UACC-62
[5] = system: NCI-H522
[6] = system: RPMI-8226
[7] = system: SK-MEL-2
[8] = system: UO-31
[9] = system: SK-OV-3
[10] = system: SW-620
[11] = system: SF-539
[12] = system: SK-MEL-5
[13] = system: SF-295
[14] = system: SK-MEL-28
[15] = system: CAKI-1

Structure (SMILES) | GI50 [1] | GI50 [2] | GI50 [3] | GI50 [4] | GI50 [5] | GI50 [6] | GI50 [7] | GI50 [8] | GI50 [9] | GI50 [10] | GI50 [11] | GI50 [12] | GI50 [13] | GI50 [14] | GI50 [15]
CCCCCCCCCC1CC(=O)Oc2cccc(O)c21 (stereo unspecified) | 27.4 µM (inactive) | 9.91 µM (inactive) | 26.7 µM (inactive) | 31.5 µM (inactive) | 20.9 µM (inactive) | 28.4 µM (inactive) | 20.6 µM (inactive) | 19.5 µM (inactive) | 7.69 µM (inactive) | 29.2 µM (inactive) | 4.18 µM (inactive) | 15.2 µM (inactive) | 11.6 µM (inactive) | 29.6 µM (inactive) | 32.7 µM (inactive)
O=C(CO)CC(=O)C(=O)Nc1ccccc1 | > 100 µM (inactive) | > 100 µM (inactive) | > 100 µM (inactive) | > 100 µM (inactive) | – | – | > 100 µM (inactive) | > 100 µM (inactive) | > 100 µM (inactive) | > 100 µM (inactive) | > 100 µM (inactive) | > 100 µM (inactive) | > 100 µM (inactive) | > 100 µM (inactive) | –
CCCCCCCCCCCCCCCC(=O)OCC1OC(n2cc(F)c(=O)[nH]c2=O)C(NC(=O)OCc2ccccc2)C(O)C1O (stereo unspecified) | 11 µM (inactive) | 19.2 µM (inactive) | 18.2 µM (inactive) | 17.1 µM (inactive) | – | 15.7 µM (inactive) | 16 µM (inactive) | 19.5 µM (inactive) | 24.1 µM (inactive) | 26.9 µM (inactive) | 16.4 µM (inactive) | 18.2 µM (inactive) | 16.9 µM (inactive) | – | 16.3 µM (inactive)
C=C1C2C[C@@H]3OC4CC5O[C@]6(CC5OC4C(C)C3OC(=O)CC3CC[C@@H]4OC5C7OC8C[C@](CCC9CC(=C)[C@H](CCC(C[C@H]1C)O2)O9)(OC7C4O3)O[C@@H]85)C[C@@H]1O[C@@]2(CC(C)[C@@H]3OC(CC(=O)CCO)C(O)C[C@@H]3O2)CC(C)[C@@H]1O6 (stereo partly specified) | < 0.001 µM (active) | < 0.001 µM (active) | < 0.001 µM (active) | < 0.001 µM (active) | < 0.001 µM (active) | – | < 0.001 µM (active) | < 0.001 µM (active) | < 0.001 µM (active) | < 0.001 µM (active) | < 0.001 µM (active) | < 0.001 µM (active) | < 0.001 µM (active) | – | < 0.001 µM (active)
COc1ccc(C[P+]2(c3ccccc3)CCCCC2)cc1.O=[N+]([O-])c1ccc(C[P+]2(c3ccccc3)CCCCC2)cc1.[O-][Cl+3]([O-])([O-])[O-].[O-][Cl+3]([O-])([O-])[O-] | > 100 µM (inactive) | 71.6 µM (inactive) | 63.8 µM (inactive) | 39.2 µM (inactive) | – | 24.9 µM (inactive) | > 100 µM (inactive) | > 100 µM (inactive) | > 100 µM (inactive) | 94.6 µM (inactive) | > 100 µM (inactive) | 23.7 µM (inactive) | > 100 µM (inactive) | 42.2 µM (inactive) | > 100 µM (inactive)
O=C(CCC(=O)Nc1ccc(Cl)c(Cl)c1)CC(=O)c1ccc(F)cc1 | > 100 µM (inactive) | > 100 µM (inactive) | > 100 µM (inactive) | 89.3 µM (inactive) | – | – | – | > 100 µM (inactive) | > 100 µM (inactive) | > 100 µM (inactive) | > 100 µM (inactive) | > 100 µM (inactive) | > 100 µM (inactive) | > 100 µM (inactive) | > 100 µM (inactive)
C[C@]12CC=CC(=O)[C@@]1(C)CCC(=O)C2 | > 100 µM (inactive) | > 100 µM (inactive) | > 100 µM (inactive) | > 100 µM (inactive) | > 100 µM (inactive) | – | > 100 µM (inactive) | > 100 µM (inactive) | > 100 µM (inactive) | > 100 µM (inactive) | > 100 µM (inactive) | > 100 µM (inactive) | > 100 µM (inactive) | > 100 µM (inactive) | > 100 µM (inactive)
O=c1/c(=C/c2ccc3c(c2)OCO3)sc2nnc(-c3ccco3)n12 | > 100 µM (inactive) | > 100 µM (inactive) | > 100 µM (inactive) | > 100 µM (inactive) | > 100 µM (inactive) | > 100 µM (inactive) | > 100 µM (inactive) | > 100 µM (inactive) | > 100 µM (inactive) | > 100 µM (inactive) | > 100 µM (inactive) | > 100 µM (inactive) | 82 µM (inactive) | > 100 µM (inactive) | > 100 µM (inactive)
NCCOCCOCC(=O)O | – | – | > 100 µM (inactive) | > 100 µM (inactive) | > 100 µM (inactive) | > 100 µM (inactive) | > 100 µM (inactive) | > 100 µM (inactive) | > 100 µM (inactive) | > 100 µM (inactive) | > 100 µM (inactive) | > 100 µM (inactive) | > 100 µM (inactive) | > 100 µM (inactive) | > 100 µM (inactive)
Brc1ccc(-c2nnc(-c3nn(-c4ccccc4)c4nc5ccccc5nc34)o2)cc1 | 26.1 µM (inactive) | > 100 µM (inactive) | 33.5 µM (inactive) | > 100 µM (inactive) | > 100 µM (inactive) | 30.5 µM (inactive) | 60 µM (inactive) | > 100 µM (inactive) | > 100 µM (inactive) | > 100 µM (inactive) | > 100 µM (inactive) | 21.3 µM (inactive) | > 100 µM (inactive) | > 100 µM (inactive) | > 100 µM (inactive)
